Laboratory results from patent US20200010857A1 (priority 2016, published 2020).
Read-outs that look alike come from different tables or passages of the source.

Legend:
[1] = test system: Rhodococcus aetherivorans BCP1; experiment: Growth of BCP1 in LB supplied with Na2SeO3 (spot plate count); type: cell-based; details: unconditioned cells
Protocol: (§1) Rhodococcus aetherivorans BCP1 strain (DSM 44980) was pre-cultured in 250 mL Erlenmeyer Baffled Flask for 48 h in 25 mL of Luria-Bertani medium (indicated as LB) [containing (g/L) NaCl, 10; Yeast Extract, 5; Tryptone, 10]. When necessary the medium was solidified by adding 15 g/L of Agar. BCP1 cells were then inoculated (1% v/v) and grown for 120 h in 50 mL of LB broth to which was added either 0.5 mM or 2 mM of Na2SeO3. This first bacterial growth is here defined as unconditioned. After the unconditioned growth, BCP1 cells were re-inoculated (1% v/v) and cultured for other 120 h in 50 mL of fresh LB medium supplied with a new addition of either 0.5 or 2 mM of Na2SeO3. Here we refer to this bacterial growth as conditioned. Unconditioned or conditioned cultures were incubated aerobically at 30° C. with shaking (150 rpm). Bacterial growth rate was evaluated by spot plate count method every 24 h over the incubation time. LB agar plates containing the spotted cells were recovered for 48 h at 30° C. The number of growing cells is reported as mean the Colony forming Unit (log10[CFU/mL]) with standard deviation. All the reagents were purchased from Sigma-Aldrich®.

[2] = test system: Rhodococcus aetherivorans BCP1; experiment: Tolerance of BCP1 towards SeO3^2− oxyanions (MIC^Se); type: cell-based
Protocol: as §1
The BCP1 strain has been exposed to different concentrations of Na2SeO3, ranging from 0.5 to 200 mM as initial concentration to evaluate its tolerance towards these toxic oxyanions. Briefly, after 24 h of exposure to each concentration of Na2SeO3 tested, BCP1 cells were serially diluted in sterile saline solution (NaCl 0.9% w/v) and the number of viable cells were determined by spot plates count on LB agar recovery plates. The assay was conducted in triplicate and the viable cell numbers are indicated as the average of the log10[CFU/mL] with standard deviation.

[3] = test system: bacterial cells; details: cited from earlier work
[4] = test system: Salinicoccus sp. QW6; details: K2TeO3 in rich medium, aerobic; Amoozegar et al. (2008); cited from earlier work
[5] = test system: Bacillus sp. BZ; details: K2TeO3 in rich medium, aerobic; Zare et al. (2012); cited from earlier work
[6] = test system: Corynebacterium difteriaes; details: K2TeO3 in rich medium, aerobic; Tucker et al. (1961); cited from earlier work
[7] = test system: Paenibacillus TeW; details: K2TeO3 in rich medium, aerobic; Chien et al. (2009); cited from earlier work
[8] = test system: Lysinibacillus sp. ZYM-1; details: K2TeO3 in rich medium, aerobic; Zao et al. (2016); cited from earlier work
[9] = test system: Bacillus sp. STG-83; details: K2TeO3 in rich medium, aerobic; Soudi et al.(2009); cited from earlier work
[10] = test system: Rhodococcus aetherivorans BCP1; experiment: Minimal Inhibitory Concentration (MIC) of tellurite, kill curve; type: cell-based; details: for log reduction of BCP1 viable cells: 24 h
Protocol: The strain Rhodococcus aetherivorans BCP1 (DSM 44980) was pre-cultured in 250 mL Erlenmeyer Baffled Flask for 2 days, containing 25 mL of Luria-Bertani medium (here indicated as LB) [composed of (g/L) NaCl, 10; Yeast Extract, 5; Tryptone, 10]. When necessary, the medium was solidified by adding 15 g/L of Agar. BCP1 cells were then inoculated (1% v/v) and grown for 5 days in 50 mL of LB medium supplied with either 100 (0.4 mM) or 500 (2 mM) μg/mL of K2TeO3. Here we refer to this first bacterial growth as unconditioned. After this growth step, BCP1 cells were re-inoculated (1% v/v) and cultured for other 5 days in 50 mL of fresh LB medium and 100 or 500 μg/mL of K2TeO3. This secondary bacterial growth is here defined as conditioned. Each culture was incubated aerobically at 30° C. with shaking (150 rpm). In order to evaluate the bacterial growth rate, every 24 h an aliquot (100 μL) of BCP1 cells was collected from each culture and serially diluted in sterile saline solution (NaCl 0.9% w/v). The cells were recovered on LB agar plates for 48 h at 30° C. The number of growing cells is reported as average of the Colony Forming Unit per milliliter (CFU mL^−1) counted for each biological trial (n=3) with standard deviation. All the reagents were purchased from Sigma-Aldrich®.
After 24 h of incubation the number of viable cells was determined by spot plates count on LB agar recovery plates. The assay was conducted in triplicate and the data are reported as average of the CFU mL-1 counted with standard deviation. The established MIC and corresponding kill curve was used to choose the best concentration of K2TeO3 to use for nano-material production.

## O=[Se](O)O [Na2SeO3, sodium selenite]
[1]; 0.5 mM Na2SeO3, 72 h
  number of live cells counted: 6.33·10^6 CFU/mL
[1]; 0.5 mM Na2SeO3, 120 h
  number of viable cells: 1.2·10^6 CFU/mL
[1]; 2 mM Na2SeO3, 72 h
  number of growing cells: 4.24·10^6 CFU/mL
[1]; 2 mM Na2SeO3, 120 h
  number of growing cells: 9.83·10^5 CFU/mL
[2]; 0.5 mM versus 200 mM Na2SeO3, 24 h
  log reduction in number of viable cells: 2 log
[2]; 24 h exposure to 0.5 mM Na2SeO3
  number of viable cells: 2.00·10^6 CFU/mL
[2]; 24 h exposure to 0.5 mM Na2SeO3, listed as SeO3^2−
  number of viable cells: 2·10^6 CFU/mL
[2]; 24 h exposure to 2 mM SeO3^2−
  number of viable cells: 1.72·10^6 CFU/mL
[2]; 24 h exposure to 200 mM Na2SeO3
  number of viable cells: 6.17·10^4 CFU/mL
[2]; ratio of MIC^Se values
  BCP1 tolerance, times higher than MIC^Se of Streptomyces microflavus FSHJ31: 80 times
  BCP1 tolerance, times higher than MIC^Se of Streptomyces sp. ES2-5: 4 times

## O=[Te]([O-])[O-].[K+].[K+] [K2TeO3, potassium tellurite]
[3]; aerobic growth
  MIC^Te: 2 µg/mL
[3]; anaerobic growth
  MIC^Te: 250 µg/mL
[4]
  MIC^Te: 12000 µM
[5]
  MIC^Te: 800 µM
[6]
  MIC^Te: 1000 µM
[7]
  MIC^Te: 1000 µM
[8]
  MIC^Te: 2000 µM
[9]
  MIC^Te: 1250 µM
[10]; 24 h exposure to 100 μg/mL K2TeO3
  number of BCP1 viable cells: 5.00·10^5 CFU/mL
[10]; 24 h exposure to 500 μg/mL K2TeO3
  number of BCP1 viable cells: 1.00·10^5 CFU/mL
[10]; 24 h exposure to 100 or 500 μg/mL K2TeO3
  decrease of number of BCP1 viable cells: less than 1 log
[10]; 24 h exposure to K2TeO3 in LB, aerobic
  Minimal Inhibitory Concentration (MIC) of TeO3^2−: 2800 µg/mL
[10]; 24 h exposure to K2TeO3 in rich medium (LB), aerobic
  Minimal Inhibitory Concentration (MIC^Te): 11200 µM
[10]; K2TeO3 varied from 100 to 1000 μg/mL (0.4-4 mM)
  log reduction of BCP1 viable cells: 1 log
[10]; K2TeO3 varied from 100 to 2000 μg/mL (0.4-8 mM)
  log reduction of BCP1 viable cells: 2 log
[10]; at the MIC, 2800 μg/mL K2TeO3, 24 h
  log reduction of viable cells vs number at time of inoculation: 3 log
[10]; ratio of MIC^Te values
  BCP1 strain tolerance relative to MIC^Te of Corynebacterium difteriaes: ten times higher
